*1 amine or outer side, *2 acyl side, *3 side chain or, on linkers, in order; H or OH if unused. Where a SMILES comes first, the peptide text is derived from it. Bridges are numbered along the chain shown (N, C = ends). Roman numbers before positions name the chains, in order. [ ]: non-standard residue; d: D form. Actinocin(9to1) = Cc1c2oc3c(C)ccc(C(=O)[*:1])c3nc-2c(C(=O)[*:2])c(N)c1=O; NMeV = CN[C@H](C(=O)O)C(C)C; Sar = CNCC(=O)O
Key:
Type in all cases: cell-based, human
MYB SPEARs = assay: qRT-PCR of MYB SPEARs; settings: HL-60, DRB and ActD, FIG. 10C
Experimental: (§1) Total RNA isolation was carried out and all RNA samples used in this study were treated with DNase I (10 U of DNase I per 3 μg of total RNA; 37° C. for one hour; in the presence of RNase inhibitor). After DNase I treatment, RNA samples were extracted with acidic phenol (pH 4.3) to eliminate any remaining traces of DNA. cDNA syntheses were performed with Random Primers (Invitrogen) or gene-specific primers with Transcriptor Reverse Transcriptase (Roche Applied Science) according to the manufacturer's recommendation. cDNA was purified with a High Pure PCR Product Purification Kit (Roche Applied Science).
(§2) Sybr green reaction was performed using iQ Sybr Green supermix (Biorad, Hercules, CA) using the following parameters: 95° C. (10 min), 40 cycles of 95° C. (15 s) and 60° C. (1 min) 72° C. (1 min). TaqMan analysis was performed using Hotstart Probe One-step qRT-PCR master mix (USB) at the following conditions: 50° C. (10 min.), 95° C. (2 min.), and then 40 cycles of 95° C. (15 sec.) and 60° C. (60 sec.).

TIP60 = assay: Western blot of total proteins, TIP60; settings: HL-60, 2 hours treatment, FIG. 10A
Experimental: Whole-cell lysates from approximately 0.2×10^6 cells per each sample were separated on 12% SDS-PAGE gels and transferred to a nitrocellulose membrane. Immunoblots were stained overnight at 4° C. with the following primary antibodies: H2A.Z (1:2,000; Abcam ab4174), H2A.Z acetyl (K4+K7+K11) (1:2,000; Abcam ab18262) or TIP60 (1:1000; generous gift from Bruno Amati). All secondary horseradish peroxidase (HRP)-conjugated antibodies were diluted 1:5,000 and incubated for 1 hr at room temperature with TBST/5% BSA. Immuno-reactive proteins were detected using the Pierce® ECL system (Thermo Scientific #32106).

PU.1 SPEARs = assay: qRT-PCR / strand-specific qRT-PCR of PU.1 SPEARs; settings: HL-60, DRB and ActD, FIG. 10C
Experimental: as §1
as §2, with “sec.). […]” for “sec.).”

c-MYC mRNA = assay: qRT-PCR of c-MYC mRNA; settings: HL-60 released from double thymidine block, 2 hrs; MG149 200 μM, TH1834 500 μM
Experimental: as §1, §2
Nascent RNA/DNA capture was performed using Click-iT Nascent RNA Capture Kit (ThermoFisher) according to the manufacturer's instructions with minor modifications. Briefly, 1. Labeling the cells with EU/EdU. 200 mM EU or 30 mM EdU stock solutions were added to the cells, to a final concentration 0.5 mM or 30 μM, respectively. 2. Incubation. The cells were incubated for 1 or 2 hours. 3. […]

Cc1c2oc3c(C)ccc(C(=O)N[C@@H]4C(=O)N[C@H](C(C)C)C(=O)N5CCC[C@H]5C(=O)N(C)CC(=O)N(C)[C@@H](C(C)C)C(=O)O[C@@H]4C)c3nc-2c(C(=O)N[C@@H]2C(=O)N[C@H](C(C)C)C(=O)N3CCC[C@H]3C(=O)N(C)CC(=O)N(C)[C@@H](C(C)C)C(=O)O[C@@H]2C)c(N)c1=O [ActD, Actinomycin D] (I: T[dV]P[Sar][NMeV] / II: T[dV]P[Sar][NMeV]; ester I:1-I:C, II:1-II:C; linker I:N-II:N via Actinocin(9to1))
MYB SPEARs level upon transcription inhibitors (MYB SPEARs): positively affected
overall global content of TIP60 (TIP60): not affected
PU.1 SPEARs level upon transcription inhibitors (PU.1 SPEARs): negatively affected

OC[C@H]1O[C@@H](n2cnc3cc(Cl)c(Cl)cc32)[C@H](O)[C@@H]1O [DRB, 5,6-Dichlorobenzimidazole 1-β-D-ribofuranoside]
MYB SPEARs level upon transcription inhibitors (MYB SPEARs): positively affected
overall global content of TIP60 (TIP60): not affected
PU.1 SPEARs level upon transcription inhibitors (PU.1 SPEARs): negatively affected

CCCCCCCc1ccc(CCc2cccc(O)c2C(=O)O)cc1 [MG149]
response of total c-MYC mRNA (c-MYC mRNA): downregulated

O=C(O)Cn1nnc(-c2ccc(CN(CCCCOc3ccc(CN4CCCC4)cc3)CCc3ccccc3)cc2)n1 [TH1834]
response of total c-MYC mRNA (c-MYC mRNA): downregulated

— patent US20240209456A1, “METHODS AND COMPOSITIONS RELATED TO CELL-CYCLE RNA's” (BETH ISRAEL DEACONESS MEDICAL CENTER, priority 2021, published 2024)
